According to patent US20180296663A1 (priority 2015, published 2018):

How the values were obtained:
CD8+ T cells = tested on: CD8+ T cells; parameters: species or system Balb/c mice; conditions: mouse, in vivo
CD4+ T cells = tested on: CD4+ T cells; parameters: species or system BALB/c mice; conditions: mouse, in vivo

| Compound | number of IFNγ/TNF double-positive multifunctional CD8+ T cells in the spleen (CD8+ T cells) | frequencies of HA-specific IFN-γ+/TNF+ CD4+ T cells (CD4+ T cells) | frequencies of HA-specific IFN-γ+/TNF+CD4+ T cells (CD4+ T cells) |
| --- | --- | --- | --- |
| HMGB1: high mobility group protein (HMGB) compound, which may act as an endogenous immunomodulator | significant increase | – | – |
| Nc1nc2c(ncn2[C@@H]2O[C@@H]3COP(=O)(O)O[C@H]4[C@@H](O)[C@H](n5cnc6c(=O)[nH]c(N)nc65)O[C@@H]4COP(=O)(O)O[C@H]3[C@H]2O)c(=O)[nH]1 [c-di-GMP, cyclic diguanylate monophosphate] | – | higher frequencies | higher frequencies |
